From patent publication US20110152267A1, “Compositions and Methods for Treating Hyperproliferative Disorders” (Texas Tech University System, priority 2009, published 2011)

Legend:
Type in all cases: cell-based, human
[1] = tested on: RPMI-8226 Multiple Myeloma cell line; experiment: DIMSCAN cytotoxicity, fenretinide + L-threo-sphinganines 3:1 (Example B2); conditions: 96 h
Protocol: (§1) Cytotoxicity Assay—Once again, cytotoxicity is determined using the DIMSCAN assay system (R. Proffitt et al., Cytometry 24, 204-213 (1996); T. Frgala et al., Mol Cancer Ther. 6:886-97, 2007). The system employs digital imaging microscopy to quantify viable cells, which selectively accumulate fluorescein diacetate to become brightly fluorescent. The system is capable of measuring cytotoxicity over a 4-5 log dynamic range by quenching the residual fluorescence of dead and dying cells with eosin Y and quantifying the total fluorescence of viable cells using digital thresholding. Measured fluorescence is directly proportionate to the number of viable cells. A comparison of the total fluorescence of a drug-treated cell population to the fluorescence of a similar number of untreated cells yields a survival fraction. In brief, 2000 to 10,000 cells/well (depending on size and growth rates) are replicate plated into 60 wells of a 96-well tissue culture plate in 0.1 mL of whole medium and allowed to attach overnight. Drug(s) are then added in 0.05 mL of whole medium to the final concentrations indicated. Drugs (fenretinide, and various chain length L-threo-sphinganines) were tested both as single agents and in a 3:1 ratio of fenretinide:sphinganine. C18-L-threo-sphinganine, or “safingol,” was also tested and results shown for reference. There are 12 wells treated per drug concentration. Twelve wells receive drug vehicle-only to the appropriate final concentration and serve as controls for the plate. Cells are incubated for 96 hours at 37° C. in ambient air with 5% CO2. Fluorescein diacetate is then added to each well in 0.05 mL media to a final concentration of 8 microgram/mL. Cells are incubated for a further 15 minutes at 37° C. and 0.03 mL of 0.5% eosin Y is added to each well. Total fluorescence of viable cells is then measured by digital imaging microscopy. Results were graphed as the ratio of the fluoresecence of drug-treated wells to non-drug treated control wells (i.e., Survival Fraction). All tests were performed at least twice. Representative results are shown.
(§2) The Combination Index (CI) is a term to describe mathematical modeling of the pharmacologic effects on cytotoxicity (cell death) of two drugs in combination based. Cytotoxic “synergy” is defined as a cell death affect which is greater than would be expected from a simple product of the single agent cytotoxicities alone (i.e. an “additive” effect). By Chou-Talalay analysis, a CI<0.9 on a Fraction Affected (“Fa”, i.e. fraction of cells killed) indicates synergy, with smaller numbers indicating greater synergy; a CI of 0.9-1.1 signifies an additive or near-additive effect; and a CI>1.1 means the drug combination is antagonistic.
Fenretinide and L-threo-sphinganines tested in human Multiple Myeloma (a cancer of the blood and bone marrow) cell line, RPMI-8226.

[2] = tested on: U-266 Multiple Myeloma cell line; experiment: DIMSCAN cytotoxicity, fenretinide + L-threo-sphinganines 3:1 (Example B3); conditions: 96 h
Protocol: as §1, §2
Fenretinide and L-threo-sphinganines tested in human Multiple Myeloma (a cancer of the blood and bone marrow) cell line, U-266.

[3] = tested on: A-172 Glioblastoma multiforme cell line; experiment: DIMSCAN cytotoxicity, fenretinide + L-threo-sphinganines 3:1 (Example B4); design: key to CI (Combination Index): Chou-Talalay CI: <0.9 synergy, 0.9-1.1 additive, >1.1 antagonism; conditions: 96 h
Protocol: as §1, §2
Fenretinide and L-threo-sphinganines tested in human Glioblastoma multiforme (brain cancer) cell line, A-172.

[4] = tested on: T98G Glioblastoma multiforme cell line; experiment: DIMSCAN cytotoxicity, fenretinide + L-threo-sphinganines 3:1 (Example B6); conditions: 96 h
Protocol: as §1, §2
Fenretinide and L-threo-sphinganines tested in human Glioblastoma multiforme (brain cancer) cell line, T98G.

[5] = tested on: SJ-GBM2 Glioblastoma multiforme cell line; experiment: DIMSCAN cytotoxicity, fenretinide + L-threo-sphinganines 3:1 (Example B7); design: key to CI (Combination Index): Chou-Talalay CI: <0.9 synergy, 0.9-1.1 additive, >1.1 antagonism; conditions: 96 h
Protocol: as §1, §2
Fenretinide and L-threo-sphinganines tested in human Glioblastoma multiforme (brain cancer) cell line, SJ-GBM2.

[6] = tested on: SJ-G2 Glioblastoma cell line; experiment: DIMSCAN cytotoxicity, fenretinide + L-threo-sphinganines 3:1 (Example B8); conditions: 96 h
Protocol: as §1, §2
Fenretinide and L-threo-sphinganines tested in human Glioblastoma (brain cancer) cell line, SJ-G2.

[7] = tested on: PC-3 prostate adenocarcinoma cell line; experiment: DIMSCAN cytotoxicity, fenretinide + L-threo-sphinganines 3:1 (Example B17)
Protocol: as §1, §2
Fenretinide and L-threo-sphinganines tested in human prostate adenocarcinoma (prostate cancer) cell line, PC-3.

[8] = tested on: PANC-1 pancreatic adenocarcinoma cell line; experiment: DIMSCAN cytotoxicity, fenretinide + L-threo-sphinganines 3:1 (Example B18)
Protocol: as §1, §2
Fenretinide and L-threo-sphinganines tested in human pancreatic adenocarcinoma (pancreas cancer) cell line, PANC-1.

[9] = 4-HPR 1.5 μM + L-threo-sphinganine 0.5 μM
[10] = 4-HPR 3 μM + L-threo-sphinganine 1 μM
[11] = 4-HPR 6 μM + L-threo-sphinganine 2 μM
[12] = 4-HPR 9 μM + L-threo-sphinganine 3 μM

## CCCCCCCCCCC[C@H](O)[C@@H](N)CO [C14]
[1]; [9]
  CI (Combination Index): 0.8
  Fa (fraction affected): 0.606
[1]; [10]
  CI (Combination Index): 1.1
  Fa (fraction affected): 0.747
[1]; [11]
  CI (Combination Index): 1.0
  Fa (fraction affected): 0.93
[1]; [12]
  CI (Combination Index): 0.4
  Fa (fraction affected): 0.994
[2]; [9]
  CI (Combination Index): 0.9
  Fa (fraction affected): 0.163
[2]; [10]
  CI (Combination Index): 1.1
  Fa (fraction affected): 0.315
[2]; [11]
  CI (Combination Index): 1.0
  Fa (fraction affected): 0.687
[2]; [12]
  CI (Combination Index): 1.3
  Fa (fraction affected): 0.76
[3]; [9]
  CI (Combination Index): 23.7
  Fa (fraction affected): 0.001
[3]; [10]
  CI (Combination Index): 3.8
  Fa (fraction affected): 0.065
[3]; [11]
  CI (Combination Index): 1.0
  Fa (fraction affected): 0.717
[3]; [12]
  CI (Combination Index): 0.5
  Fa (fraction affected): 0.958
[4]; [9]
  CI (Combination Index): 1.0
  Fa (fraction affected): 0.544
[4]; [10]
  CI (Combination Index): 1.6
  Fa (fraction affected): 0.602
[4]; [11]
  CI (Combination Index): 1.0
  Fa (fraction affected): 0.839
[4]; [12]
  CI (Combination Index): 0.5
  Fa (fraction affected): 0.941
[5]; [9]
  CI (Combination Index): 5.0
  Fa (fraction affected): 0.007
[5]; [10]
  CI (Combination Index): 1.2
  Fa (fraction affected): 0.209
[5]; [11]
  CI (Combination Index): 1.2
  Fa (fraction affected): 0.598
[5]; [12]
  CI (Combination Index): 1.4
  Fa (fraction affected): 0.820
[6]; [9]
  CI (Combination Index): 1.3
  Fa (fraction affected): 0.103
[6]; [10]
  CI (Combination Index): 1.3
  Fa (fraction affected): 0.307
[6]; [11]
  CI (Combination Index): 1.4
  Fa (fraction affected): 0.575
[6]; [12]
  CI (Combination Index): 1.0
  Fa (fraction affected): 0.845
[7]; [9]
  CI: 0.7
  Fa: 0.192
[7]; [10]
  CI: 1.0
  Fa: 0.283
[7]; [11]
  CI: 1.3
  Fa: 0.426
[7]; [12]
  CI: 1.2
  Fa: 0.634
[8]; [9]
  CI: 3.2
  Fa: 0.054
[8]; [10]
  CI: 2.6
  Fa: 0.176
[8]; [11]
  CI: 2.1
  Fa: 0.450
[8]; [12]
  CI: 0.7
  Fa: 0.883

## CCCCCCCCCCCC[C@H](O)[C@@H](N)CO [C15]
[1]; [9]
  CI (Combination Index): 1.0
  Fa (fraction affected): 0.518
[1]; [10]
  CI (Combination Index): 1.1
  Fa (fraction affected): 0.75
[1]; [11]
  CI (Combination Index): 0.5
  Fa (fraction affected): 0.978
[1]; [12]
  CI (Combination Index): 0.2
  Fa (fraction affected): 0.998
[2]; [9]
  CI (Combination Index): 1.2
  Fa (fraction affected): 0.085
[2]; [10]
  CI (Combination Index): 1.5
  Fa (fraction affected): 0.241
[2]; [11]
  CI (Combination Index): 1.2
  Fa (fraction affected): 0.697
[2]; [12]
  CI (Combination Index): 0.9
  Fa (fraction affected): 0.929
[3]; [9]
  CI (Combination Index): 23.7
  Fa (fraction affected): 0.001
[3]; [10]
  CI (Combination Index): 1.4
  Fa (fraction affected): 0.378
[3]; [11]
  CI (Combination Index): 0.4
  Fa (fraction affected): 0.991
[3]; [12]
  CI (Combination Index): 0.4
  Fa (fraction affected): 0.998
[4]; [9]
  CI (Combination Index): 1.3
  Fa (fraction affected): 0.516
[4]; [10]
  CI (Combination Index): 1.3
  Fa (fraction affected): 0.683
[4]; [11]
  CI (Combination Index): 1.0
  Fa (fraction affected): 0.849
[4]; [12]
  CI (Combination Index): 0.4
  Fa (fraction affected): 0.962
[5]; [9]
  CI (Combination Index): 1.7
  Fa (fraction affected): 0.086
[5]; [10]
  CI (Combination Index): 1.1
  Fa (fraction affected): 0.301
[5]; [11]
  CI (Combination Index): 0.9
  Fa (fraction affected): 0.765
[5]; [12]
  CI (Combination Index): 1.0
  Fa (fraction affected): 0.953
[6]; [9]
  CI (Combination Index): 1.1
  Fa (fraction affected): 0.135
[6]; [10]
  CI (Combination Index): 1.3
  Fa (fraction affected): 0.282
[6]; [11]
  CI (Combination Index): 1.3
  Fa (fraction affected): 0.620
[6]; [12]
  CI (Combination Index): 1.0
  Fa (fraction affected): 0.846
[7]; [9]
  CI: 0.6
  Fa: 0.200
[7]; [10]
  CI: 0.9
  Fa: 0.287
[7]; [11]
  CI: 1.2
  Fa: 0.417
[7]; [12]
  CI: 1.0
  Fa: 0.621
[8]; [9]
  CI: 2.9
  Fa: 0.078
[8]; [10]
  CI: 2.2
  Fa: 0.205
[8]; [11]
  CI: 1.7
  Fa: 0.486
[8]; [12]
  CI: 0.2
  Fa: 0.978
